Experimental data from ChEMBL document CHEMBL1201862, “PubChem BioAssay data set” (2004).
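Values below derive from 48-hour exposures of cells grown in 96-well plates, with endpoints linearly interpolated between the two concentrations bracketing the appropriate inhibition level. Here, GI50 denotes the concentration required for 50% inhibition of growth.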 Active and inactive are the calls of the source. Cut-off read from the data, not from the text of the source: active = GI50 up to about 1.1 µM and inactive = higher.

What was measured:
Test in all cases: DTP human tumour cell line panel, 48 h
A549 = system: A549
ACHN = system: ACHN
BT-549 = system: BT-549
COLO 205 = system: COLO 205
HCT-116 = system: HCT-116
HT-29 = system: HT-29
Hs-578T = system: Hs-578T
M14 = system: M14
NCI-H226 = system: NCI-H226
NCI-H522 = system: NCI-H522
NCI/ADR-RES = system: NCI/ADR-RES
RPMI-8226 = system: RPMI-8226
SF-295 = system: SF-295
SK-MEL-28 = system: SK-MEL-28
SK-OV-3 = system: SK-OV-3
SN12C = system: SN12C
SR = system: SR
T47D = system: T47D
TK-10 = system: TK-10
SNB-75 = system: SNB-75

Measured: GI50

O=C1c2ccccc2CN1c1ccc(O)cc1
inactive: A549 > 100 µM | ACHN > 100 µM | BT-549 > 100 µM | COLO 205 > 100 µM | HCT-116 > 100 µM | HT-29 > 100 µM | Hs-578T > 100 µM | M14 > 100 µM | NCI-H226 > 100 µM | NCI-H522 > 100 µM | NCI/ADR-RES > 100 µM | RPMI-8226 > 100 µM | SF-295 > 100 µM | SK-MEL-28 > 100 µM | SK-OV-3 > 100 µM | SN12C > 100 µM | SR > 100 µM | T47D > 100 µM | TK-10 > 100 µM

COc1ccc(C(SCCO)(c2ccccc2)c2ccccc2)cc1
inactive: A549 12.2 µM | ACHN 14.1 µM | BT-549 16.6 µM | COLO 205 14 µM | HCT-116 10.9 µM | HT-29 14.5 µM | Hs-578T 22.3 µM | M14 7.08 µM | NCI-H226 12.7 µM | NCI-H522 13.6 µM | NCI/ADR-RES 14.8 µM | SF-295 13.4 µM | SK-MEL-28 17.1 µM | SK-OV-3 16.5 µM | SN12C 12.8 µM | SNB-75 12.2 µM | SR 21.6 µM | T47D 9.84 µM | TK-10 18.8 µM

c1cc(-c2ccc(-c3ccc(C4=NCCCN4)cc3)o2)ccc1C1=NCCCN1
inactive: A549 8.2 µM | ACHN > 100 µM | BT-549 35.4 µM | COLO 205 68.9 µM | HCT-116 39.6 µM | HT-29 76.4 µM | Hs-578T 98.6 µM | M14 53.5 µM | NCI-H226 54 µM | NCI-H522 81.3 µM | NCI/ADR-RES 76.7 µM | SF-295 24.2 µM | SK-MEL-28 25.1 µM | SK-OV-3 > 100 µM | SN12C 4.18 µM | SNB-75 43 µM | SR > 100 µM | T47D 59.7 µM | TK-10 50.2 µM

CC(C)(Cc1ccccc1)N1C(=O)N1C(C)(C)Cc1ccccc1
inactive: A549 20.1 µM | BT-549 29.4 µM | COLO 205 25.6 µM | HCT-116 40.6 µM | HT-29 15.5 µM | Hs-578T > 100 µM | M14 34.8 µM | NCI-H226 16.4 µM | NCI-H522 13.8 µM | NCI/ADR-RES > 100 µM | RPMI-8226 16.5 µM | SK-MEL-28 > 100 µM | SK-OV-3 57.4 µM | SN12C 52 µM | SNB-75 32.5 µM | SR 20.6 µM | T47D 65.9 µM | TK-10 > 100 µM

CN(C)CCCNC(=O)N/N=C/c1ccc(O)cc1
inactive: A549 > 100 µM | ACHN > 100 µM | BT-549 > 100 µM | COLO 205 > 100 µM | HCT-116 > 100 µM | HT-29 > 100 µM | Hs-578T > 100 µM | M14 > 100 µM | NCI-H226 > 100 µM | NCI-H522 > 100 µM | NCI/ADR-RES > 100 µM | SF-295 > 100 µM | SK-MEL-28 > 100 µM | SK-OV-3 > 100 µM | SN12C > 100 µM | SNB-75 59.2 µM | SR > 100 µM | T47D > 100 µM | TK-10 > 100 µM

Cc1[nH]c2ccccc2c1/C=N/NC(=O)c1cccc(I)c1
inactive: A549 29.2 µM | ACHN 26.8 µM | BT-549 21.9 µM | COLO 205 13.5 µM | HCT-116 22.9 µM | HT-29 15.7 µM | Hs-578T 33.1 µM | M14 15 µM | NCI-H522 24.3 µM | NCI/ADR-RES 20.3 µM | RPMI-8226 19.9 µM | SF-295 18.7 µM | SK-MEL-28 22.7 µM | SK-OV-3 32.2 µM | SN12C 30.2 µM | SNB-75 22.4 µM | SR 17.9 µM | T47D 14.8 µM | TK-10 26.7 µM

Cc1c[nH]c(C(=O)O)c1-c1ccc2c(-c3ccccc3)nc3ccccc3n12
inactive: A549 33.7 µM | ACHN 52.4 µM | BT-549 30.6 µM | COLO 205 39.4 µM | HCT-116 34.8 µM | HT-29 22.8 µM | Hs-578T 18.6 µM | M14 31.7 µM | NCI-H226 20.3 µM | NCI-H522 20.9 µM | NCI/ADR-RES 17.2 µM | SF-295 22.7 µM | SK-MEL-28 31.4 µM | SK-OV-3 32.1 µM | SN12C 30.7 µM | SNB-75 17.5 µM | SR 33 µM | T47D 37.2 µM | TK-10 29.2 µM
